Results: patent publication US20140242093A1, “METHODS AND COMPOSITIONS FOR MODULATING THE INNATE IMMUNE RESPONSE AND/OR MYOGENESIS IN A MAMMALIAN SUBJECT” (FRED HUTCHINSON CANCER RESEARCH CENTER, priority 2011, published 2014)

Columns and labels:
FSHD muscle cells = test: DUX4-fl mRNA RT-PCR in FSHD muscle cells treated with MAO inhibitors; format: cell-based, human; conditions: for abundance of DUX4-fl mRNA: quantitative RT-PCR, FIG. 4
Source text: Middle panel is a no RT control and bottom panel is a GAPDH loading control.

HCT116 cells = test: RT-PCR of DUX4-fl and cancer testis antigens in HCT116 cells treated with azacytidine; format: cell-based, human
Method: The relative expression of the CTA in each row was measured by RT-PCR and represented as high (light shading) or low (dark shading).

FSHD fibroblasts = test: DUX4 mRNA decay with cycloheximide in FSHD fibroblasts with inducible MyoD; format: cell-based, human; conditions: 38 hours in differentiation conditions, MyoD induction
Method: FSHD fibroblasts expressing low amounds of DUX4 mRNA were stably transduced with a beta-estradiol inducible MyoD so that addition of beta-estradiol will convert them to skeletal muscle, which after 96 hours of induction increases the steady-state levels of the DUX4 mRNA and activates expression of the MyoD target Mgn. […] Washout of the chx results in the rapid loss of the DUX4 mRNA, disappearing between 2 and 8 hrs of washout. The loss of DUX4 mRNA is associated with its translation since the DUX4 target PRAME 1 is induced as the DUX4 mRNA disappears.

[1] = tested on: control human primary myoblasts; test: Expression microarray of primary myoblasts transduced with lentivirus carrying DUX4-fl, DUX4-s or GFP
Method: Primary human myoblasts were collected and cultured as previously described (Snider et al., 2010). Primary myoblasts were maintained at or below 70% confluency for proliferation. For differentiation, cells were allowed to reach 95-100% confluency in growth medium. Once confluency was reached, the cells were changed to differentiation medium (F10 media supplemented with 1% horse serum, 10 μg/mL insulin, and 10 μg/mL transferrin, penicillin/streptomycin) and maintained for 4 days. Human RD cells were grown in DMEM in 10% bovine calf serum (Hyclone) and penicillin/streptomycin. The primary myoblasts were transduced with lentivirus carrying DUX-fl, DUX4- or GFP (MOI=15).
Expression microarrays were performed on the transduced cells at 24 hours after transduction as follows. […] Samples were analyzed by Illumina Human Whole Genome microarrays. Probe intensities were corrected, normalized, and summarized by the Lumi package of Bioconductor (Du et al., 2008). Differentially expressed genes were identified by the LIMMA package of Bioconductor (Wettenhall and Smyth, 2004). Gene set enrichment analysis (GSEA) was performed using the Bioconductor GOstats package (Falcon and Gentleman, 2007).

Human FSHD myoblasts = test: siRNA knock-down of UPF1 in FSHD myoblasts; format: cell-based
Method: Method for transfection of myoblasts with siUPF1 (siRNA against UPF1): Human FSHD myoblasts were plated for transfection at 30% confluency in F10 media containing 20% FBS and no antibiotics. siRNA targeting siUPF1 (ThermoScientific) was transfected at 100 nM final concentration using Lipofectamine 2000 according to manufacturers protocol. siLuciferase was used as a negative control. Following overnight incubation of cells with transfection complexes the cells were washed with PBS and fed fresh growth media: F10 media, 20% FBS, dexamethasone (1 uM) and fgf (10 ng/ml). When cultures reached confluency growth media was replaced with serum free differentiation media (F10 media, insulin and transferrin at 10 ug/ml each) and culture continued for 48 hours. Total RNA was isolated using Qiagen RNeasy columns and analysis for expression of Dux4 mRNA and for target gene activation was performed.

With `N[C@@H]1C[C@H]1c1ccccc1` (racemic) [tranylcypromine] the “abundance of DUX4-fl mRNA” value (FSHD muscle cells) was “had no inhibitory effect”.

For `Nc1ncn([C@@H]2O[C@H](CO)[C@@H](O)[C@H]2O)c(=O)n1` [5-azacytidine], the “expression of cancer testis antigens” value (HCT116 cells; RT-PCR heat map FIG. 3, HCT116 cells) was “robust induction” and the DUX4-fl expression (HCT116 cells; RT-PCR, HCT116 cells) was “induces the expression of DUX4-fl”.

`C[C@@H]1C[C@@H]([C@H](O)CC2CC(=O)NC(=O)C2)C(=O)[C@@H](C)C1` [cycloheximide] was tested, and the “DUX4 mRNA” value (FSHD fibroblasts) was “significant increase in DUX4 mRNA”.

`C#CCN(C)Cc1ccccc1` [pargyline, N-Benzyl-N-methylprop-2-yn-1-amine] was tested, and the “DUX4 mRNA expression” value (FSHD muscle cells; RT-PCR, 48 hours in differentiation medium, varying amounts, FIG. 5) was “dose-dependent inhibition of DUX4 expression” and the “abundance of DUX4-fl mRNA” value (FSHD muscle cells) was “decreases the abundance of DUX4-fl mRNA in a dose-dependent manner”.

With DUX4 the Fc range ([1]; Family with sequence similarity 90: FAM90A1, FAM90A2P, FAM90A6P, FAM90A7) was 9-19, the Fc range ([1]; KH homology domain containing family: KHDC1, KHDC1L) was 108-258 and the Fc range ([1]; Methyl-binding protein-like family: MBD3L2, MBD3L3, MBD3L5) was 197-310. For the same compound, the Fc range ([1]; Preferentially expressed in melanoma family: PRAMEF1, PRAMEF2, PRAMEF4-15, PRAMEF17, PRAMEF20) was 9-269, the Fc range ([1]; Ret-finger Protein-like family: RFPL1, RFPL1S, RFPL2, RFPL3, RFPL4A, RFPL4B) was 20-336 and the Fc range ([1]; Tripartite motif-containing family: TRIM43, TRIM48, TRIM49, TRIM53, TRIM64) was 27-235. For the same compound, the Fc range ([1]; Zinc finger and SCAN domain containing family: ZSCAN4, ZSCAN5B, ZSCAN5D) was 13-320.

For GAUGCAGUUCCGCUCCAUUUU [siUPF1], the “expression of DUX4 target gene ZSCAN4” value (Human FSHD myoblasts; RT-qPCR) was “increases” and the “DUX4 mRNA” value (Human FSHD myoblasts; semiquantitative RT-PCR, differentiation medium, vs siluc) was “at higher levels”.
